Data published in paper PMC6661831, “Molecular docking, synthesis, kinetics study, structure–activity relationship and ADMET analysis of morin analogous as Helicobacter pylori urease inhibitors” (BMC Chemistry, 2019).
≈ marks a conversion by molar mass, not a printed value. Like-named read-outs stand apart in the source and are kept apart here.

What was measured:
Jack bean urease = target: T1, Jack bean urease (Canavalia ensiformis, UniProt P07374); assay: biochemical
T1 construct: purchased Sigma Aldrich
T1 sequence (P07374 whole entry, looked up): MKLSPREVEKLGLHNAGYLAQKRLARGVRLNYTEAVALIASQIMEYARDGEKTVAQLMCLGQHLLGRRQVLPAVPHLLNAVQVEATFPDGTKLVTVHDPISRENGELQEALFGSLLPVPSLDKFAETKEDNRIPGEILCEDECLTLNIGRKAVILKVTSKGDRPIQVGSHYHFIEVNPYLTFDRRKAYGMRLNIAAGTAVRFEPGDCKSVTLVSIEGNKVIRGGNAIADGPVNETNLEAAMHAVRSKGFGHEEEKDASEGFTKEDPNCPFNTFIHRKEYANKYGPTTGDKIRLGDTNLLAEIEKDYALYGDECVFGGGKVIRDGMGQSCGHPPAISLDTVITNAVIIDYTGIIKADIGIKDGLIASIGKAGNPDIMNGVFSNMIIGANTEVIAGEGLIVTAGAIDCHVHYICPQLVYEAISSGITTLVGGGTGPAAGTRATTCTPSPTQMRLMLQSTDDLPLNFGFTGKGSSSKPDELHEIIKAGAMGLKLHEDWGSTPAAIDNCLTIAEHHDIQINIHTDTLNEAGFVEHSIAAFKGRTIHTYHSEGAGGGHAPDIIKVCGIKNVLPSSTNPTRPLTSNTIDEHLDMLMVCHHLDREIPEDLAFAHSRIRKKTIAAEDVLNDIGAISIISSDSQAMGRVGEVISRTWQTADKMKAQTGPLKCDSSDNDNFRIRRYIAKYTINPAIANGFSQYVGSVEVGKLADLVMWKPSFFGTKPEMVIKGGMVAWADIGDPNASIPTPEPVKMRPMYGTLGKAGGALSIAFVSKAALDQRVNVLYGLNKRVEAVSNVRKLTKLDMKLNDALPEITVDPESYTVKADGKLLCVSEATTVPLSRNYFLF
Source text: (§1) The novel synthesized Morin derivatives were examined for in- vitro urease inhibitory action by determining the ammonia concentration released during the reaction by indophenol technique as described by Weatherburn as well as for antioxidant nature by determining the ability of compounds to donate hydrogen and electrons using DPPH method.
Urease enzyme inhibition investigation studies for all synthesized compounds were done by the method developed by Weatherburn named Indophenol against Jack Bean Urease. Briefly, incubation of solution of Jack bean protein 25 μL was done at temperature of 30 °C for a period of 15 min with 55 μL of buffers solution having 100 mM urea and 5 μL of test solution in 96-well plates. 45 μL phenol solution composing phenol 1% w/v and solution of sodium nitroprusside 0.005% w/v and alkali reagent 70 μL composed of sodium hydroxide 0.5% w/v and active sodium hypochloride solution 0.1% were mixed to every well. The measurement of increase in absorption at 625 nm was done after 50 min by help of a microplate reader (Molecular Device, USA). Readings were recorded in triplicate set in a final volume of 200 μL using thiourea as standard. Each assay was performed at pH 8.2 (0.01 M K2HPO4.3H2O, 0.01 M […] and 1 mM EDTA). Calculation of Inhibition in percentage of synthesized derivatives was done by the formula given as: I\% =AControl-ASample/AControl×100 where, Acontrol is control absorbance; Asample is test absorbance

[1] = DPPH radical scavenging (antioxidant) assay; settings: DPPH 300 µM, 30 min, mean SEM
Source text: as §1
DPPH method was adopted for measuring the antioxidant nature of the synthesized derivatives. According to this method synthesized compounds were allowed to react for 0.5 h. at 37 °C with stable free radical, 1, 1-diphenyl-2-picrylhydrazyl radical (DPPH). The DPPH was taken in a concentration of 300 µM. Decrease in value of absorption at […] was measured after the period of incubation using a microplate reader using ascorbic acid as a standard. Molecule which can donate a proton to DPPH and cause its reduction act as an antioxidant. Following reduction deep violet coloured DPPH solution changes to yellow depending upon the nature of antioxidant compound, which brings a measurable decrease in value of absorption at 517 nm. The proton or electron donating capacity of the derivative was estimated from the fading of deep purple colored methanolic solution of 1, 1-diphenylpicrylhydrazyl (DPPH). Incubation of mixture was done at room temperature for 30 min and measurements were done at 517 against blank. Calculation of percentage inhibition was done by following formula: I\% =AControl-ASample/AControl×100 where, Acontrol is control absorbance; Asample is test absorbance

[2] = test system: H. pylori bacterium (ATCC 43504, DSM 4867); assay: Anti-H. pylori activity, well diffusion technique; format: cell-based, Helicobacter pylori; settings: 2500 µg per well, 24–48 h, 35 °C
Description: (§2) Compounds M2b and M2i which were found potent in urease inhibition and antioxidant activity as well as in terms of docking score were tested further against antibacterial efficiency against Helicobacter pylori ATCC 43504, DSM 4867 using AHA as a standard and DMSO as control. […] It could be concluded that compound M2i indicated excellent antibacterial action against H. Pylori, antioxidant and urease inhibitory activity.
(§3) Novel synthesized derivatives were investigated against H. pylori bacterium (ATCC 43504 DSM 4867, AHA as standard) for their antibacterial activity by using Well diffusion technique. The stock solution of compounds in DMSO (1000 μg/mL) were prepared. Cell suspension was prepared from culture grown on BHI broth. The cell suspensions of all the cultures were adjusted to 1–2 × 10^5cells/ml. Helicobacter pylori (100 µl) was inoculated by spread plate technique on agar plates (90 mm). Agar wells (5 mm) were made on H. pylori inoculated media and impregnated with 2500 µg of each sample and standard which were incubated @ 35 °C for 24–48 h with 5% CO2 and observed for zone of inhibition around the well. MIC was determined against Helicobacter pylori by micro broth dilution technique as per NCCLS method.

[3] = test system: H. pylori bacterium (ATCC 43504, DSM 4867); assay: MIC against Helicobacter pylori, micro broth dilution technique; format: cell-based; settings: NCCLS method
Description: as §2, §3

[4] = read-out: IC50 urease inhibition, Jack bean urease, indophenol method, pH 8.2, mean SEM

| SMILES | IC50 (Jack bean urease) | IC50 [1] | further results |
| --- | --- | --- | --- |
| O=c1c(O)c(-c2ccc(O)cc2O)oc2cc(O)cc(O)c12 [Morin, 3,5,7, 2′, 4′-pentahydroxyflavone] | 21.77 ± 0.016 µM | 12.83 ± 0.028 µM |  |
| NC(=S)N/N=c1\c(O)c(-c2ccc(O)cc2O)oc2cc(O)cc(O)c12 [Compound M3, (1Z)-1-(3,5,7-trihydroxy-2-(2,4-dihydroxyphenyl)-4H-chromen-4-ylidene)thiosemicarbazide] | 17.9 ± 0.007 µM | 11.9 ± 0.031 µM |  |
| O=[N+]([O-])c1cccc(NC(=S)N=c2c(O)c(-c3ccc(O)cc3O)oc3cc(O)cc(O)c23)c1 [Compound M2d, N-((4E)-2-(2,4-dihydroxyphenyl)-3,5,7-trihydroxy-4H-chromen-4-ylidene)-N-(3-nitrophenyl)thiourea] |  | 11.56 ± 0.013 µM | IC50 (Jack bean urease; [4]): 20.41 ± 0.031 µM |
| NC(N)=S [Thiourea, reference compound] |  |  | IC50 (Jack bean urease; Jack bean urease, indophenol method, pH 8.2, mean SEM, read-out: IC50 urease inhibition): 22.8 ± 0.011 µM |
| Oc1ccc(-c2oc3cc(O)cc(O)c3c(=NC(=S)Nc3ccccc3)c2O)c(O)c1 [Compound M2a, N-((4E)-2-(2,4-dihydroxyphenyl)-3,5,7-trihydroxy-4H-chromen-4-ylidene)-N-phenylthiourea] | 12.71 ± 0.027 µM | 7.795 ± 0.003 µM |  |
| O=[N+]([O-])c1ccccc1NC(=S)N=c1c(O)c(-c2ccc(O)cc2O)oc2cc(O)cc(O)c12 [Compound M2c, N-((4E)-2-(2,4-dihydroxyphenyl)-3,5,7-trihydroxy-4H-chromen-4-ylidene)-N-(2-nitrophenyl)thiourea] |  | 10.18 ± 0.006 µM | IC50 (Jack bean urease; [4]): 19.5 ± 0.005 µM |
| Oc1ccc(-c2oc3cc(O)cc(O)c3c(=NC(=S)Nc3ccccc3Cl)c2O)c(O)c1 [Compound M2b, N-(2-chlorophenyl)-N-((4E)-2-(2,4-dihydroxyphenyl)-3,5,7-trihydroxy-4H-chromen-4-ylidene)thiourea] |  | 7.37 ± 0.024 µM |  |
| Oc1ccc(-c2oc3cc(O)cc(O)c3/c(=N/C(=S)NNc3ccccc3)c2O)c(O)c1 [Compound M4, (4Z)-4-(3,5,7-trihydroxy-2-(2,4-dihydroxyphenyl)-4H-chromen-4-ylidene)-1-phenylthiosemicarbazide] | 18.96 ± 0.011 µM | 8.099 ± 0.018 µM |  |
| Oc1ccc(-c2oc3cc(O)cc(O)c3/c(=N/Nc3ccccc3)c2O)c(O)c1 [Compound M5, (4Z)-2-(2,4-dihydroxyphenyl)-4-(2-phenylhydrazinylidene)-4H-chromene-3,5,7-triol] | 17.68 ± 0.08 µM | 8.78 ± 0.008 µM |  |
| O=C1O[C@H]([C@@H](O)CO)C(O)=C1O [Ascorbic acid, reference compound] |  | 8.59 ± 0.004 µM |  |
| O=[N+]([O-])c1ccc(NC(=S)N=c2c(O)c(-c3ccc(O)cc3O)oc3cc(O)cc(O)c23)cc1 [Compound M2e, N-((4E)-2-(2,4-dihydroxyphenyl)-3,5,7-trihydroxy-4H-chromen-4-ylidene)-N-(4-nitrophenyl)thiourea] |  | 8.744 ± 0.008 µM | IC50 (Jack bean urease; [4]): 20.2 ± 0.01 µM |
| CC(=O)NO [AHA, acetohydroxamic acid] |  |  | zone of inhibition [2]: 9.00 ± 0.50 mm; MIC [3]: 1000 µg/mL (≈ 13.3 mM) |
